The results in this text go back to patent US12527794B2, “Compositions, formulations, and methods for hair treatment” (Oddity Labs, LLC, priority 2021, dated 2026).

The subject of data set [1] is human hair follicle dermal papilla cells (hFDPC). As to the kind of experiment: Human follicle dermal papilla cell (hFDPC) proliferation, cell viability assay. To be noted: hFDPCs supplemented with BIO, BMP-2 and FGFβ. The data set is classed as cell-based. As to the method: The ability of a compound or salt of the present disclosure to increase proliferation of human hair follicle dermal papilla cells (hFDPC) was tested using a cell viability assay, such as the Promega CellTiter-Glo® Luminescent Cell Viability Assay, MTT cell proliferation assay (ATCC® 30-1010K) or cell counting. […] In Table 8, A represents less than 20% of increased proliferation of hFDPCs, B represents 20-40%, and C represents larger than 40% of increased proliferation of hFDPCs. For this assay, hFDPCs were cultured on tissue culture-treated plastic and supplemented with 6-bromoindirubin-39-Oxime (BIO), recombinant bone morphogenetic protein-2 (BMP-2), and basic fibroblast growth factor (FGFβ), whose combination was previously found to preserve in situ dermal papilla gene signatures.

A further data set deals with TK.6 lymphoblasts. Nature of the data set: TK.6 micronucleus assay. The data set is classed as cell-based. How it is done:
(§1) The safety/toxicology profiles of a compound or salt of the present disclosure was evaluated via a series of in vitro genotoxicity assays, including the SOS-chromotest to determine bacterial genotoxicity, and the TK.6 micronucleus assay to determine chromosomal damage and forward mutations. Standard reactive oxygen species (ROS) and caspase 3/7 assay were conducted to determine general cellular toxicity. Moreover, a series of sensitization tests were conducted to predict any potential skin sensitivity. These include the direct peptide reactivity assay to evaluate haptenization, the KeratinoSens reporter assay to determine potential sensitivity via the activation of a cytoprotective pathway, and an immunological assay using human immature monocyte-derived dendritic cells to evaluate any potential immunogenicity.
TK.6 lymphoblasts are a well-studied cell line commonly used for gene mutation analyses. They are heterozygous for the thymidine kinase gene (TK) and enable the detection of forward mutations and chromosomal damage, which manifests as micronuclei and are detectable via flow cytometry.
TK.6 cells were dosed with the exemplary compounds or a vehicle control (0.1% v/v DMSO) and cultured with or without S9 metabolic activation for 24 hr. […] Methyl methanesulfonate, a known genotoxic, alkylating agent was used as a positive control for micronuclei detection.
The micronucleus assay was also performed to determine if the compounds are genotoxic by evaluating the presence of micronuclei. […] I-17 elicited genotoxicity at >3.125 μg/mL.

For the next data set, the system named is HepG2 cells. Nature of the data set: Caspase 3/7 activity in HepG2 cells. It is filed as cell-based. As to conditions: HepG2, >2-log concentration range. As to the method: Cells were treated with either the exemplary compounds or vehicle control containing correspondingly % v/v-matched amounts of DMSO spanning a >2-log concentration range. Data represents mean±s.d. and representative of at least 2 experimental replicates.
HepG2 cells are an immortalized liver cell line commonly used to study apoptosis induced by small molecules. Cells were treated with either the exemplary compounds or vehicle control containing correspondingly % v/v-matched amounts of DMSO spanning a >2-log concentration range. Data represents mean±s.d. and representative of at least 2 experimental replicates.

The test system of a further data set is bacteria. As to the kind of experiment: SOS chromotest (β-galactosidase activity). The data set is classed as cell-based. To be noted: varying concentrations; 4-NQ as known genotoxin. How it is done:
The SOS chromotest is a well-established bacteria-based test for genotoxicity.
as §1

For a further data set, the system named is Nrf2-ARE pathway. Nature of the data set: KeratinoSens Nrf2-ARE luciferase reporter assay. The data set is classed as cell-based. As to conditions: cinnamic aldehyde as known sensitizing compound. As to the method: The Nrf2-ARE pathway is a master regulator of cytoprotective responses to oxidative stress, and is an early indicator of skin sensitization. Nrf2 (nuclear factor erythroid 2-related factor) is a transcription factor that binds to antioxidant responsive elements (ARE). By fusing ARE to the light-producing luciferase gene, a KeratinoSens Nrf2-ARE reporter assay was performed whereby luciferase signal is directly correlated to Nrf2-ARE pathway activation.
Normalized ARE-luciferase activity was measured using a known sensitizing compound (cinnamic aldehyde) and exemplary compounds.
On the technique in general: A reporter such as luciferase makes a cellular process visible.

Data set [2] has as its system follicle dermal papilla cells. Nature of the data set: Reactive oxygen species (ROS) activity in follicle dermal papilla cells. The data set is classed as cell-based. To be noted: 5 μg/mL, 24 hr, relative to vehicle control 0.1% v/v DMSO. As to the method:
Normalized reactive oxygen species (ROS) activity in follicle dermal papilla cells were analyzed after treatment with 5 μg/mL exemplary compounds relative to vehicle control (0.1% v/v DMSO) after 24 hr. The increase in ROS levels is harmful on cell mhemeostasis, structures, and functions and results in oxidative stress.

For the next data set, the system named is female subjects. Nature of the data set: Clinical consumer perception study. It is filed as in vivo, human. To be noted: 0.02% v/v water-based formula every 2 days, 6 weeks, 32 subjects completed. As to the method:
Photographs were taken after 6 weeks. Subjects were female and ranged in age from 27-65 years. Subjects used a simple, water-based formula containing an exemplary compound (at 0.02% v/v) every 2 days in the morning or night on dry or towel-dried hair. Approximately 2 mL was applied directly to the hairline. No randomization was required for the study and subjects were blinded to the name of the test material.
The clinical test was performed by Eurofins|CRL, Inc. The test followed established, standardized procedures for clinical testing designed to ensure the well-being of clinical study subjects and the generation of reliable study data. Subjects were female and ranged in age from 27-65 years. Subjects used a simple, water-based formula containing a exemplary compound, VII-3 (at 0.02% v/v) every 2 days in the morning or night on dry or towel-dried hair. Approximately 2 mL was applied directly to the hairline. No randomization was required for the study and subjects were blinded to the name of the test material.
Photographs of subjects' hair were taken 6 weeks after the treatment with the representative compounds (FIG. 6). Subjects were female and ranged in age from 27-65 years. Subjects used a simple, water-based formula containing an exemplary compound VII-3 (at 0.02% v/v) every 2 days in the morning or night on dry or towel-dried hair. […]

Data set [3] deals with Human follicle papilla cells. As to the kind of experiment: Functional stability across pH and temperature (follicle papilla cell proliferation). The data set is classed as cell-based. As to conditions: pre-treated 7 days in pH-adjusted water at varying temperatures; cells dosed 5 μg/mL, 48 hr. How it is done:
FIGS. 7A and 7B show normalized proliferation follicle papilla cell proliferation after 48 hr following treatment with the exemplary compound (VII-3) pre-treated across a range of pH conditions (FIG. 7A) and temperature conditions (FIG. 7B). Data represents mean±s.d. and representative of n=2 donors.
An exemplary compound (VII-3) was prepared in various solvents (DMSO; dimethyl sulfoxide, DMI; dimethyl isosorbide, or a 1:1 mixture of dimethyl isosorbide and ethanol), the diluted in pH-adjusted water and left at varying temperatures for 7 days. Human follicle papilla cells were dosed at 5 μg/mL with the exemplary compound and further supplemented with 6-bromoindirubin-39-Oxime (BIO), recombinant bone morphogenetic protein-2 (BMP-2), and basic fibroblast growth factor (FGFβ), whose combination was previously found to preserve in vivo dermal papilla gene signatures. Normalized proliferation follicle papilla cell proliferation was analyzed after 48 hr following the treatment with the exemplary compound pre-treated across a range of pH conditions (FIG. 7A) and temperature conditions (FIG. 7B). Data represents mean±s.d. and representative of n=2 donors.

SMILES strings stand for the structures.

Regarding `C=CCc1cc(/C=C2\C(=O)NC(=S)N(c3ccc(OC)cc3)C2=O)cc(OC)c1O` [Compound I-17, 4,6(1H,5H)-Pyrimidinedione, dihydro-5-[[4-hydroxy-3-methoxy-5-(2-propen-1-yl)phenyl]methylene]-1-(4-methoxyphenyl)-2-thioxo-], in data set [1], the “Percent Increase Proliferation of hFDPCs (%)” value was “C (C represents larger than 40% of increased proliferation of hFDPCs)”. Also, in the data set with TK.6 lymphoblasts (24 hr), the “concentration eliciting genotoxicity in TK.6 micronuclei assay” value was > 3125 ng/mL. Further, the “normalized caspase 3/7 activity” value in the data set on HepG2 cells is “significant caspase-3/7 activation at the highest concentration”.
In the case of `CCC(=O)N1CCN(c2nnc(-c3ccc(C)cc3)c3ccccc23)CC1` [II-4, 1-Propanone, 1-[4-[4-(4-methylphenyl)-1-phthalazinyl]-1-piperazinyl]-], in the data set on TK.6 lymphoblasts, the “micronuclei formation / genotoxic effect in TK.6 cells” value was “do not promote any micronuclei formation”. Further, in the data set with bacteria, the “genotoxic effects, normalized β-galactosidase activity” value is on record as “did not exhibit any genotoxic effects”. In addition, the “normalized caspase 3/7 activity” value in the data set on HepG2 cells is listed as “did not exhibit any caspase activation”.
As for `COC(=O)c1c(S(C)(=O)=O)[nH]c(-c2ccccc2)nc1=O` [VII-1], in the data set with TK.6 lymphoblasts, the “micronuclei formation / genotoxic effect in TK.6 cells” value was “do not promote any micronuclei formation”. Moreover, the “genotoxic effects, normalized β-galactosidase activity” value with bacteria is recorded as “did not exhibit any genotoxic effects”. The “normalized caspase 3/7 activity” value in the data set with HepG2 cells is listed as “did not exhibit any caspase activation”. The “sensitizing potential, normalized ARE-luciferase activity” value with Nrf2-ARE pathway is “exhibited sensitizing potential”.
On to `C=CCc1cc(/C=C2\C(=O)NC(=S)N(c3ccccc3OC)C2=O)cc(OCC)c1O` [Compound I-18, 4,6(1H,5H)-Pyrimidinedione, 5-[[3-ethoxy-4-hydroxy-5-(2-propen-1-yl)phenyl]methylene]dihydro-1-(2-methoxyphenyl)-2-thioxo-], for which the “Percent Increase Proliferation of hFDPCs (%)” value in data set [1] was “B (B represents 20-40%)”. For the same compound, the “normalized ROS level” value in data set [2] is “higher than other compounds”.
Consider `CSc1nc(-c2ccco2)nn1S(C)(=O)=O` [VII-3, 1H-1,2,4-Triazole, 3-(2-furanyl)-1-(methylsulfonyl)-5-(methylthio)-], for which the “genotoxic effects, normalized β-galactosidase activity” value with bacteria was “did not exhibit any genotoxic effects”. The “normalized caspase 3/7 activity” value in the data set on HepG2 cells is given as “did not exhibit any caspase activation”. The Adverse effects in the data set on female subjects is recorded as 0/32 (0%). Besides, the “functional stability (normalized follicle papilla cell proliferation after pre-treatment)” value in data set [3] was “functionally stable across physiologically-relevant pH and temperature ranges”.
In the case of `C=CCc1cc(/C=C2\C(=O)NC(=O)N(c3cc(C)cc(C)c3)C2=O)cc(OCC)c1O` [Compound I-2, 2,4,6(1H,3H,5H)-Pyrimidinetrione, 1-(3,5-dimethylphenyl)-5-[[3-ethoxy-4-hydroxy-5-(2-propen-1-yl)phenyl]methylene]-], in data set [1], the “Percent Increase Proliferation of hFDPCs (%)” value is reported as “B (B represents 20-40%)”.
As to `COc1ccc(CCCc2nc3ccccc3[nH]2)cc1` [VII-14, 1H-Benzimidazole, 2-[3-(4-methoxyphenyl)propyl]-], the “micronuclei formation / genotoxic effect in TK.6 cells” value in the data set on TK.6 lymphoblasts is given as “do not promote any micronuclei formation”. Besides, the “normalized caspase 3/7 activity” value in the data set with HepG2 cells was “did not exhibit any caspase activation”.
As for `COc1cc([N+](=O)[O-])cc(/C=C2\C(=O)NC(=O)N(C)C2=O)c1O` [Compound I-15, 2,4,6(1H,3H,5H)-Pyrimidinetrione, 5-[(2-hydroxy-3-methoxy-5-nitrophenyl)methylene]-1-methyl-], the “Percent Increase Proliferation of hFDPCs (%)” value in data set [1] is “B (B represents 20-40%)”.
